Experimental data published in patent publication US7445802B2, “Site-specific in situ generation of allicin using a targeted alliinase delivery system for the treatment of cancers, tumors, infectious diseases and other allicin-sensitive diseases” (Yeda Research and Development Co. Ltd, priority 2000, dated 2008).

Tests used:
[1] = background statement; cited from earlier work
CB-2 cells [2] = assay: [3H]-thymidine incorporation (cell proliferation) in CB-2 cells; format: cell-based, Chinese hamster; settings: allicin 0-54 μM, 16 h
Description: (§1) The following cell lines were used: N87 human gastric tumor cell line expressing the ErbB-2 receptors (described by Park et al, 1990); CB-2 cell line, generated by transfection of Chinese hamster ovary (CHO) cells with mammalian expression vectors that direct expression of ErbB-2 (Tzahar et al, 1996); and 32D cell line known to be devoid of the ErbB-2 receptors (described by Pinkas-Kramarski, 1996).
[Methyl-^3H]thymidine incorporation (Amersham Pharmacia Biotech, UK) into DNA was measured in 96-well plates. Cells (1,000-20,000 cells/well) were grown 6 h after seeding at 37° C. Cells were treated with conjugates for 1 hour and then 3×washed with medium. […] Cells were harvested after 16 hours incubation at 37° C.
Different concentrations of pure allicin were applied to tissue cultured […] CB-2 cancer cells for quantitative determination of the effective concentration. Thus, CB-2 cells were cultured in 96-well plate (2000 cells/well) for 6-16 h at 37° C. Pure allicin was added (10 μl/well) from pre-diluted allicin solutions in PBS to final concentrations of 0-54 μM (0-9 μg/ml). [^3H]-Thymidine diluted with medium was added to the cell culture (0.8 μCi/well). Cells were harvested after incubation for 16 h at 37° C. and the level of incorporated [^3H]-thymidine was measured to determine the extent of cell proliferation. […]

CB-2 cells [3] = assay: Trypan blue viability of CB-2 cells; format: cell-based
Description: as §1
(§2) Viability of living cells was done after staining with Trypan Blue (0.025%) for 10 minutes.
(§3) Cell cultures of N87 (20,000 cells/well) were grown in 96-well plates and 32D cells were grown in suspension in 12-well plates (200,000 cells/ml). Cells were treated with: none, mAb ErbB-2 or mAb-ErbB-2-alliinase conjugate (total protein 2 μg/20,000 cells) for 1 hour at 37° C.

N-87 tumors = assay: In vivo assay of antitumor effects (tumor growth) in nude mice injected with N-87 cells; settings: alliin alone i.p., control mice
Description: N-87 cultured cells (3-5×10^6) were injected subcutaneously into the back of the mice. One to 5 days later, groups of 6 to 8 mice received either none or mAb-alliinase conjugate by intravenous injection (20 μg mAb/mouse). Conjugates were injected with 3-4 days intervals.
All mice were supplemented with Pyridoxine (vitamin B6) in the drinking water (100 mg/L). […] Tumor size was measured every second day.
All the animal groups were injected with N-87 cells 1-5 days before any treatment. • Group 1. […] Mice were treated with mAb-alliinase conjugates and alliin was administered regularly as described below.
MAb-alliinase conjugate was injected I.V. every 3-4 days. Mice were treated ×5 with the conjugate (20 μg/mouse) in. 3-4 day intervals. Total amount of mAb in the conjugate/mouse was 0.1 mg.

N87 cancer cells = assay: Trypan blue viability of N87 cells; format: cell-based; settings: alliin only, mAb ±alliin, or conjugate without alliin
Description: as §1, §2, §3

Compound	lifetime after being mixed with blood [1]	[3H]-thymidine incorporation (DNA synthesis) (CB-2 cells [2])	lethal concentration (CB-2 cells [3]; Trypan blue staining, CB-2 cells)	tumor size (N-87 tumors)	cell damage (Trypan blue) (CB-2 cells [3]; CB-2, alliin only, mAb ±alliin, or conjugate without alliin)	cell damage (Trypan blue) (N87 cancer cells)
C=CCS[S+]([O-])CC=C (stereo not drawn) [allicin, thio-2-propene-1-sulfinic acid S-allyl ester]	disappears within a few minutes	inhibits DNA synthesis	about 20 μM	–	–	–
S-allyl-L-cysteine sulfoxide [alliin]	–	–	–	no effect on the tumor size	not damaged	not damaged
